Patent publication EP4467141A1, “PYRAZOLO-QUINOLINES AS SELECTIVE INHIBITORS OF GENOTOXIC STRESS-INDUCED IKK/NF- KB PATHWAYS FOR CANCER THERAPY” (Max-Delbrück-Centrum für Molekulare Medizin in der …, priority 2023, dated 2024)

Legend:
Test in all cases: Kinase panel study
Type in all cases: biochemical
Settings in all cases: read-out: Percentage of inhibition; for inhibition at 1 µM: 1000nM; for inhibition at 10 µM: 10000nM
NTRK2 (TRKB) = target: T1, NTRK2 (TRKB) (Homo sapiens, UniProt Q16620)
T1 construct: purchased Thermo Fisher Scientific
How it was run: (§1)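 Lead compounds and derivatives were profiled by ZLyte or Adapta in vitro kinase assays. Each value reports inhibition percentage at one of two concentrations, 1 µM or 10 µM.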

ABL1 T315I = target: T2, ABL1 T315I (Homo sapiens, UniProt P00519, T315I)
T2 construct: purchased Thermo Fisher Scientific
How it was run: as §1

STK25 (YSK1) = target: T3, STK25 (YSK1) (Homo sapiens, UniProt O00506)
T3 construct: purchased Thermo Fisher Scientific
How it was run: as §1

PRKX = target: T4, PRKX (Homo sapiens, UniProt P51817)
T4 construct: purchased Thermo Fisher Scientific
T4 sequence (P51817 1-358): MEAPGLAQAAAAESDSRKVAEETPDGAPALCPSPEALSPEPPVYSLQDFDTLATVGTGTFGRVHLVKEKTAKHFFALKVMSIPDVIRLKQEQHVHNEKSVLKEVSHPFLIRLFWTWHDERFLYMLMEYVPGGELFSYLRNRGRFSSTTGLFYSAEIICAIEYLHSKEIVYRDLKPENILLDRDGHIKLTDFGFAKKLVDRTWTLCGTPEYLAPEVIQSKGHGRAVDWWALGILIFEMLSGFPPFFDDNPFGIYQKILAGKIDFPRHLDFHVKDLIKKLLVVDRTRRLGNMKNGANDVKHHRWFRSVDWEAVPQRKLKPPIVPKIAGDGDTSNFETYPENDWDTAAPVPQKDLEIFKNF
How it was run: as §1

ACVR1B (ALK4) = target: T5, ACVR1B (ALK4) (Homo sapiens, UniProt P36896)
T5 construct: purchased Thermo Fisher Scientific
T5 sequence (P36896 24-505): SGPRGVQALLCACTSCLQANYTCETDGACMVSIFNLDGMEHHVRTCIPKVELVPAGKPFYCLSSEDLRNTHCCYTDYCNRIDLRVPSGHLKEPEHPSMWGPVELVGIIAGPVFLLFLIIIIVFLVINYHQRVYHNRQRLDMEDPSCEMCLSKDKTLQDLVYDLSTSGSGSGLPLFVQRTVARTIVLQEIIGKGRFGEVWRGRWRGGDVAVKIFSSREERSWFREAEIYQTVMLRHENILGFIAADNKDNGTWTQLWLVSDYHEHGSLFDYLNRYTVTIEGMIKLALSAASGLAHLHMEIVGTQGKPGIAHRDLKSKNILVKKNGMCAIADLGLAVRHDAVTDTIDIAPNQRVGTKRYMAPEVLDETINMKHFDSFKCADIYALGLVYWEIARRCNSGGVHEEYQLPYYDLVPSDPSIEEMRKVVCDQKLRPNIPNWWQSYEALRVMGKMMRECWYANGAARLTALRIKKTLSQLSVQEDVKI
How it was run: as §1

PHKG1 = target: T6, PHKG1 (Homo sapiens, UniProt Q16816)
T6 construct: purchased Thermo Fisher Scientific
How it was run: as §1

LRRK2 I2020T = target: T7, LRRK2 I2020T (Homo sapiens, UniProt Q5S007, I2020T)
T7 construct: purchased Thermo Fisher Scientific
How it was run: as §1

FGFR4 = target: T8, FGFR4 (Homo sapiens, UniProt P22455)
T8 construct: purchased Thermo Fisher Scientific
How it was run: as §1

STK4 (MST1) = target: T9, STK4 (MST1) (Homo sapiens, UniProt Q13043)
T9 construct: purchased Thermo Fisher Scientific
T9 sequence (Q13043 1-487): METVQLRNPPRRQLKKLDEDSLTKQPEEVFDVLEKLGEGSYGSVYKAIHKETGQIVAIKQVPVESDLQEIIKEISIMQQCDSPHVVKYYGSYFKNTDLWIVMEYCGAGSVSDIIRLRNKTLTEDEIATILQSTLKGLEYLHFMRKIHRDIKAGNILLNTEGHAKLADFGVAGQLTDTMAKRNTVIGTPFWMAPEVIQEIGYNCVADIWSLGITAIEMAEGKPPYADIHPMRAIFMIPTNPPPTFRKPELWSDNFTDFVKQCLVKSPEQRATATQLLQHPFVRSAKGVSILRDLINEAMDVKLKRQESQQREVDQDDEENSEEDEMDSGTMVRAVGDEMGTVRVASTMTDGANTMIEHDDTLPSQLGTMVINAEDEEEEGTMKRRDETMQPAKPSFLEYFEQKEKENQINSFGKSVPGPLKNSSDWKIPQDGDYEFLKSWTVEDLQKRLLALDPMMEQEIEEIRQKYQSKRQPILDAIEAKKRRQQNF
How it was run: as §1

MET M1250T = target: T10, MET M1250T (Homo sapiens, UniProt P08581, M1250T)
T10 construct: purchased Thermo Fisher Scientific
How it was run: as §1

CDK18/cyclin Y = target: T11, CDK18/cyclin Y (Homo sapiens, UniProt Q07002)
T11 construct: purchased Thermo Fisher Scientific
How it was run: as §1

RPS6KA3 (RSK2) = target: T12, RPS6KA3 (RSK2) (Homo sapiens, UniProt P51812)
T12 construct: purchased Thermo Fisher Scientific
How it was run: as §1

T8 sequence (P22455 22-802): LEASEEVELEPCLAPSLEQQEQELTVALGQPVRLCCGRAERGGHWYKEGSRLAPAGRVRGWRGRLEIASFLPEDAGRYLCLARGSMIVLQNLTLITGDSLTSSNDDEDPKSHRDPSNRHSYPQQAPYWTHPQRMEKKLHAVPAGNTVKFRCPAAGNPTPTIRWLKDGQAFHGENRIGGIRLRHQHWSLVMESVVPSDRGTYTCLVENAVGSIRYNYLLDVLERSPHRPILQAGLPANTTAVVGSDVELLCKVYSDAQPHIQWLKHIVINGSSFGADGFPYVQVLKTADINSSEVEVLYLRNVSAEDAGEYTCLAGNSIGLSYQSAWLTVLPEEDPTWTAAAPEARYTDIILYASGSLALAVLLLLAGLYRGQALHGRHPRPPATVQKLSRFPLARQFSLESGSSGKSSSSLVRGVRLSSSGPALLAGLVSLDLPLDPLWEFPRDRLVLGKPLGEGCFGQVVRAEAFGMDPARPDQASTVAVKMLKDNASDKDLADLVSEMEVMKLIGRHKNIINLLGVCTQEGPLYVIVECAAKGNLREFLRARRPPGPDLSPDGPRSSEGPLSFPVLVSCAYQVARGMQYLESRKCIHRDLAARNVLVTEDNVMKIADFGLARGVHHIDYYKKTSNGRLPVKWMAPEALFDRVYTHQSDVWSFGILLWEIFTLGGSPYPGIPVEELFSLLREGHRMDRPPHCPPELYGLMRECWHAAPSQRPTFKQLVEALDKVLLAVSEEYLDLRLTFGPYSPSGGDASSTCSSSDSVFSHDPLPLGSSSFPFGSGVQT
T3 sequence (O00506 whole entry): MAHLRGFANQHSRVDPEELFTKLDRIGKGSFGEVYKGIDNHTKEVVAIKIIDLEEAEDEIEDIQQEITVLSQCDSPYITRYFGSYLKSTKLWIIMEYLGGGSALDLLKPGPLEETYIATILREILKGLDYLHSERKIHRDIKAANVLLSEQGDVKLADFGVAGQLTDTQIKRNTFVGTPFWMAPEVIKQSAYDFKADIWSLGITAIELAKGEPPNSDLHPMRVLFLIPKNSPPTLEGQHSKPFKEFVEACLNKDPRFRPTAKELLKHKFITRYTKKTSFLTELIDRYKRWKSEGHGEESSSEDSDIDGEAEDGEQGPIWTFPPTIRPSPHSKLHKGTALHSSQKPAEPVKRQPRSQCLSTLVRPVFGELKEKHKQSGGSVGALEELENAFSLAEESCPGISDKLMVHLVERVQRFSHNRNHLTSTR
T6 sequence (Q16816 whole entry): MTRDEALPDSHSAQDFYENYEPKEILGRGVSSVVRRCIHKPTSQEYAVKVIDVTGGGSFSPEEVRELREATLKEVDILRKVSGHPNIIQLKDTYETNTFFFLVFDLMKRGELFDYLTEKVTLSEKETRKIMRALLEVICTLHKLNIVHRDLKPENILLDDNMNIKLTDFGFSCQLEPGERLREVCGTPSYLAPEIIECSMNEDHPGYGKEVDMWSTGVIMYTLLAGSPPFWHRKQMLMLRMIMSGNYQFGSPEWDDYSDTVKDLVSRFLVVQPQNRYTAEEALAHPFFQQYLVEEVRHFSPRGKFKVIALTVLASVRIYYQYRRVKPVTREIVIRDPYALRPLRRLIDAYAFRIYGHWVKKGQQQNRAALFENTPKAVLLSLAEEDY
T11 sequence (Q07002 whole entry): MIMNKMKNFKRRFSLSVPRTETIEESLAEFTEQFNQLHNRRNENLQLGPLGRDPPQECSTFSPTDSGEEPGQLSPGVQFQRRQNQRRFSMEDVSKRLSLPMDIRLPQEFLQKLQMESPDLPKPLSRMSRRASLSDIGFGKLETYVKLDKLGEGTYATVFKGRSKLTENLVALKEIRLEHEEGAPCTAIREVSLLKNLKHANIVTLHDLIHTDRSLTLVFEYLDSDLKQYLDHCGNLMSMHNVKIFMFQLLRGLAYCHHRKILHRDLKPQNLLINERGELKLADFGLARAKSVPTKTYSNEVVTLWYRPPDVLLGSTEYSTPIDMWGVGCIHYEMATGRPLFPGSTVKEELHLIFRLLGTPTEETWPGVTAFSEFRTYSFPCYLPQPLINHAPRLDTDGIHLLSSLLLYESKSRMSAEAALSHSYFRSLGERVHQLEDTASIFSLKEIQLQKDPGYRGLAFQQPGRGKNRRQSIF
T11 sequence (Q8ND76 whole entry partner): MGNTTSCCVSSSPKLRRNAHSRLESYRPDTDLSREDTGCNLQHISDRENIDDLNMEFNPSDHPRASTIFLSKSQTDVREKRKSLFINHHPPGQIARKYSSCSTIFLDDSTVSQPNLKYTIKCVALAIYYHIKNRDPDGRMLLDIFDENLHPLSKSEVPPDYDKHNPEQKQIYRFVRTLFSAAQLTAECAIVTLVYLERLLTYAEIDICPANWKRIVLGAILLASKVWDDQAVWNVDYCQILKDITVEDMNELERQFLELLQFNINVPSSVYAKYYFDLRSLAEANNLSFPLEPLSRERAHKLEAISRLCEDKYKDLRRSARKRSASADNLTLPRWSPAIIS
T10 sequence (P08581 25-1390 M1250T): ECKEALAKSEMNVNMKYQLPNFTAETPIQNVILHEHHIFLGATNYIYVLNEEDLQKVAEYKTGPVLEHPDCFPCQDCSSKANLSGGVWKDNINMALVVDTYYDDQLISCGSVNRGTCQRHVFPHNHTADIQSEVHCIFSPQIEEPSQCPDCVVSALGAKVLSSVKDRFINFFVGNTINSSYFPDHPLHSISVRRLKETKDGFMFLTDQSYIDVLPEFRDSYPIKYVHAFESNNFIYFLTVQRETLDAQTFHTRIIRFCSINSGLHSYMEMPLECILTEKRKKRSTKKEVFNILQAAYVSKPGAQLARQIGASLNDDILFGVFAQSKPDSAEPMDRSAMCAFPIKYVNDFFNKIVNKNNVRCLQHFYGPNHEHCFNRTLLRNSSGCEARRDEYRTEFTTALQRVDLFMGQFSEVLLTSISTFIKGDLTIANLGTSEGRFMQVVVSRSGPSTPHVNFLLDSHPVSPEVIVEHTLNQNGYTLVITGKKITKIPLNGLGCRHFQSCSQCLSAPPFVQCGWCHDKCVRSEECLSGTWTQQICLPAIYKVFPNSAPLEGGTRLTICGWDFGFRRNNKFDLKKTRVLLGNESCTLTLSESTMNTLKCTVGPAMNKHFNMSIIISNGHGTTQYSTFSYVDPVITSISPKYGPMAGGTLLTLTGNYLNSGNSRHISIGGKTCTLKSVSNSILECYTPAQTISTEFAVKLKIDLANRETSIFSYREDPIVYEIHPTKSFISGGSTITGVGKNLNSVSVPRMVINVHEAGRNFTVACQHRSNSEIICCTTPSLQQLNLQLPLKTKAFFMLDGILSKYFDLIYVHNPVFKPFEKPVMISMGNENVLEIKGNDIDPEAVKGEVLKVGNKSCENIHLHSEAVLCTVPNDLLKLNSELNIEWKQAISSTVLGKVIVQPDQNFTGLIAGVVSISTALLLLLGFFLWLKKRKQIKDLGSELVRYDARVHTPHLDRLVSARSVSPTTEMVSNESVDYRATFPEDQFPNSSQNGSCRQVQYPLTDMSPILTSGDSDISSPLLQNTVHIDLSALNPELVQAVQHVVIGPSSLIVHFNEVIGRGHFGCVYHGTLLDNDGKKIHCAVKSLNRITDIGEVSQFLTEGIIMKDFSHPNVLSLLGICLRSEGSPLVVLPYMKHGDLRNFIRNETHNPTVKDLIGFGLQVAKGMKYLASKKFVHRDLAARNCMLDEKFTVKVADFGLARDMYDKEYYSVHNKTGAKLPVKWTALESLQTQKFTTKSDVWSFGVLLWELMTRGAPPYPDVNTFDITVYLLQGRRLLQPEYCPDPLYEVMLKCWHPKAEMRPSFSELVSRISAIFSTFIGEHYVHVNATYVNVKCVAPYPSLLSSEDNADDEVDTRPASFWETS
T1 sequence (Q16620 32-822): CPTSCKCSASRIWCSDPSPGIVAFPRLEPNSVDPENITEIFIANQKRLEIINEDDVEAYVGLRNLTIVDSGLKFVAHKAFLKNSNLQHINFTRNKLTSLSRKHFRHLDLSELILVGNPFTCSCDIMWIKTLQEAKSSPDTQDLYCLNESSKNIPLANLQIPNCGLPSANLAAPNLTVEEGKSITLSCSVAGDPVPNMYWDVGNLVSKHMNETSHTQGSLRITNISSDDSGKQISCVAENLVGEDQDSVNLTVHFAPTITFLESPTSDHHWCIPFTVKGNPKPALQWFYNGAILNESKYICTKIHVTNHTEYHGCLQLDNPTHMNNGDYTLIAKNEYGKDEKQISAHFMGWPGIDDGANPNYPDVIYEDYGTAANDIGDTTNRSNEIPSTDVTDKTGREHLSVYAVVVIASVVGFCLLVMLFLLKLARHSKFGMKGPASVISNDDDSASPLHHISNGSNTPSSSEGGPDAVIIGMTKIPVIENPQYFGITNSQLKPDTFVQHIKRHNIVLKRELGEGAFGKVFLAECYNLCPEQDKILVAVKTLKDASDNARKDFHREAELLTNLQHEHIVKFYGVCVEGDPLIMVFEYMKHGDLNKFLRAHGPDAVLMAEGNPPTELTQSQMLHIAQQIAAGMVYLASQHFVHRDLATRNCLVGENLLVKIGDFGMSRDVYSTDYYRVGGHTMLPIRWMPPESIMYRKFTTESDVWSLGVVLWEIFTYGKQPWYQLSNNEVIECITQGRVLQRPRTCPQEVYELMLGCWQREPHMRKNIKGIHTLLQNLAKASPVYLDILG

Work on COc1ccc2c(c1OC)c(=O)n1c3ccc(O)cc3c3ccnc2c31 [MW01, 5-Hydroxy-10,11-dimethoxy-9H-benzo[c]indolo[3,2,1-ij][1,5]naphthyridin-9-one] yielded an inhibition at 1 µM (NTRK2 (TRKB)) of 35%, an inhibition at 10 µM (NTRK2 (TRKB)) of 68% and an inhibition at 1 µM (ABL1 T315I) of 9%. The inhibition at 10 µM (ABL1 T315I) was 34%, the inhibition at 1 µM (STK25 (YSK1)) was -9% and the inhibition at 10 µM (STK25 (YSK1)) was -3%. The inhibition at 1 µM (PRKX) was 22%, the inhibition at 10 µM (PRKX) was 16% and the inhibition at 1 µM (ACVR1B (ALK4)) was -9%. It also gave an inhibition at 10 µM (ACVR1B (ALK4)) of -3%, an inhibition at 1 µM (PHKG1) of 8% and an inhibition at 10 µM (PHKG1) of 12%. For the same compound, the inhibition at 1 µM (LRRK2 I2020T) was 83%, the inhibition at 10 µM (LRRK2 I2020T) was 90% and the inhibition at 1 µM (FGFR4) was 13%. It also gave an inhibition at 10 µM (FGFR4) of 37%, an inhibition at 1 µM (STK4 (MST1)) of 4% and an inhibition at 10 µM (STK4 (MST1)) of 11%. It also gave an inhibition at 1 µM (MET M1250T) of 19%, an inhibition at 10 µM (MET M1250T) of 42% and an inhibition at 1 µM (CDK18/cyclin Y) of 5%. It also gave an inhibition at 10 µM (CDK18/cyclin Y) of 15%, an inhibition at 1 µM (RPS6KA3 (RSK2)) of 5% and an inhibition at 10 µM (RPS6KA3 (RSK2)) of 10%.
In the case of COc1ccc2cc3c(N)nn(C(=O)c4cccc(N(C)C)c4)c3nc2c1 [MW05, (3-Amino-7-methoxypyrazolo[3,4-b]quinolin-1-yl)-[3-(dimethylamino)phenyl]methanone], the inhibition at 1 µM (NTRK2 (TRKB)) was 13%, the inhibition at 10 µM (NTRK2 (TRKB)) was 42% and the inhibition at 1 µM (ABL1 T315I) was 8%. For the same compound, the inhibition at 10 µM (ABL1 T315I) was 5%, the inhibition at 1 µM (STK25 (YSK1)) was -3% and the inhibition at 10 µM (STK25 (YSK1)) was -11%. For the same compound, the inhibition at 1 µM (PRKX) was 8%, the inhibition at 10 µM (PRKX) was -2% and the inhibition at 1 µM (ACVR1B (ALK4)) was 1%. For the same compound, the inhibition at 10 µM (ACVR1B (ALK4)) was -8%, the inhibition at 1 µM (PHKG1) was 3% and the inhibition at 10 µM (PHKG1) was -11%. It also gave an inhibition at 1 µM (LRRK2 I2020T) of -3%, an inhibition at 10 µM (LRRK2 I2020T) of 5% and an inhibition at 1 µM (FGFR4) of 13%. For the same compound, the inhibition at 10 µM (FGFR4) was -4%, the inhibition at 1 µM (STK4 (MST1)) was 4% and the inhibition at 10 µM (STK4 (MST1)) was 3%. The inhibition at 1 µM (MET M1250T) was 1%, the inhibition at 10 µM (MET M1250T) was -15% and the inhibition at 1 µM (CDK18/cyclin Y) was 13%. The inhibition at 10 µM (CDK18/cyclin Y) was 55%, the inhibition at 1 µM (RPS6KA3 (RSK2)) was 3% and the inhibition at 10 µM (RPS6KA3 (RSK2)) was 2%.
